Molecules are shown by their SMILES. Values after ≈ are worked out from the molar mass of the structure shown. Read-outs that look alike come from different tables or passages of the source.

What is called Cmax is the highest concentration seen after dosing. The term solubility denotes the concentration that dissolves in the medium under given conditions. Read a low solubility as a poorly soluble substance.

Details of series [1]: species or system SD rats. The note with it: rat, in vivo, po, 88 mg. The procedure: The microcapsules were orally administered to 7 week-old male SD rats (Sprague Dawley, Samtako, 4 rats per one group, 7 days feeding ad libitum) by using Sonde. Blood samples were taken from the rats in a predetermined time interval, and the respective pharmacokinetic profiles were evaluated.

Another series in a line: physchem. The note with it: water, thermodynamic from solid. The procedure: Each of distilled water and artificial intestinal juice (pH 6.8; USP) was added thereto to fill 100 mL, and the mixture was vigorously blended for 1 hr and passed through a 0.45 μm filter, followed by HPLC analysis.
The conditions of series [2]: fenofibric acid in plasma; cited from earlier work.

In the case of `CC(C)(Oc1ccc(C(=O)c2ccc(Cl)cc2)cc1)C(=O)[O-].C[N+](C)(C)CCO` [Choline fenofibrate], in series [1], the “AUC 0-24” value worked out at 3477.7 ± 558.9 µg·h/mL and the peak concentration (Cmax) came to 309.4 ± 62.2 µg/mL.

As for `CC(C)(Oc1ccc(C(=O)c2ccc(Cl)cc2)cc1)C(=O)O` [Fenofibric acid, 2-[4-(4-chlorobenzoyl)phenoxy]-2-methyl-propanoic acid], the concentration in solution in “physchem” (solubility at 1 hr) came to 165 µg/mL (≈ 518 µM). Further, in series [1] (male, Sprague-Dawley), the “AUC 0-24” value is 2742.2 ± 218.1 µg·h/mL and the Cmax amounted to 209.3 ± 26.1 µg/mL. In series [2], the “half-life of elimination in plasma” value was “about 20 hours” and the “time of peak plasma levels after administration” value is “about 5 hours”.

For the molecule `CC(C)OC(=O)C(C)(C)Oc1ccc(C(=O)c2ccc(Cl)cc2)cc1` [Fenofibrate], in series [1] (male, Sprague-Dawley), the “AUC 0-24” value came out at 2078.3 ± 610.5 µg·h/mL and the Cmax was found to be 137.2 ± 37.9 µg/mL.

These data come from patent US20130022684A1 (HANMI SCIENCE CO., LTD., priority 2010, published 2013).
